This passage reports mortality results from US10681908B2, “Molecules having pesticidal utility, and intermediates, compositions, and processes, related thereto” (Dow AgroSciences LLC, priority 2016, dated 2020).

SMILES strings stand for the structures.

The test system of assay [1] is Beet Armyworm (Spodoptera exigua, LAPHEG). The assay can be described thus: Bioassay on Beet Armyworm (BAW), 128-well diet tray assay. It is filed as in vivo. The following applies: 168 h, 50 μg/cm^2 on artificial diet, second instar larvae, five to seven days, 25° C., read-out: BAW % Control (or Mortality) rating. As for the experimental part: (§1) Example A: Bioassays on Beet Armyworm (Spodoptera Exigua, LAPHEG) (“BAW”), Corn Earworm (Helicoverpa zea, HELIZE) (“CEW”), and Cabbage Looper (Trichoplusia ni, TRIPNI) (“CL”)
(§2) Certain molecules disclosed in this document were tested against BAW, CEW, and CL using procedures described in the following examples. In the reporting of the results, the “BAW, CEW, & CL Rating Table” was used (See Table Section).
Bioassays on BAW were conducted using a 128-well diet tray assay. One to five second instar BAW larvae were placed in each well (3 mL) of the diet tray that had been previously filled with 1 mL of artificial diet to which 50 μg/cm^2 of the test molecule (dissolved in 50 μL of 90:10 acetone-water mixture) had been applied (to each of eight wells) and then allowed to dry. Trays were covered with a clear self-adhesive cover and held at 25° C., 14:10 light-dark for five to seven days. Percent mortality was recorded for the larvae in each well; activity in the eight wells was then averaged. The results are indicated in the table entitled “Table ABC: Biological Results” (See Table Section).
(§3) Bioassays on BAW and CL were conducted according to the procedures outlined in Example A: Bioassays on Beet Armyworm (“BAW”) and Cabbage Looper (“CL”) using the indicated concentrations.

The subject of assay [2] is Cabbage Looper (Trichoplusia ni, TRIPNI). In words: Bioassay on Cabbage Looper (CL), 128-well diet tray assay. The format is in vivo. The following applies: 168 h, 50 μg/cm^2 on artificial diet, second instar larvae, five to seven days, 25° C., read-out: CL % Control (or Mortality) rating. The method, then: as §1, §2
Bioassays on CL were conducted using a 128-well diet tray assay. One to five second instar CL larvae were placed in each well (3 mL) of the diet tray that had been previously filled with 1 mL of artificial diet to which 50 μg/cm^2 of the test molecule (dissolved in 50 μL of 90:10 acetone-water mixture) had been applied (to each of eight wells) and then allowed to dry. Trays were covered with a clear self-adhesive cover and held at 25° C., 14:10 light-dark for five to seven days. Percent mortality was recorded for the larvae in each well; activity in the eight wells was then averaged. The results are indicated in the table entitled “Table ABC: Biological Results” (See Table Section).
as §3

Take `C[C@H](CSCC(F)(F)F)NC(=O)c1ccc(/C(F)=C/C(c2ccc(Cl)c(Cl)c2)C(F)(F)F)cc1Br` (stereo partly drawn) [F58, 2-Bromo-4-((Z)-3-(3,4-dichlorophenyl)-1,4,4,4-tetrafluorobut-1-en-1-yl)-N—((R)-1-((2,2,2-trifluoroethyl)thio)propan-2-yl)benzamide]: the mortality at 50 µg/cm2 in assay [1] and in assay [2] was 50 to 100% in each case.

Take `C[C@H](CSCC(F)(F)F)NC(=O)c1ccc(/C(F)=C/C(c2ccc(Br)c(Br)c2)C(F)(F)F)cc1C(F)(F)F` (stereo partly shown) [F62]: the mortality at 50 µg/cm2 in assay [1] and in assay [2] was 50 to 100% each time.

Consider `CCS(=O)(=O)C[C@@H](C)NC(=O)c1ccc(/C(F)=C/C(c2cc(Cl)c(Br)c(Cl)c2)C(F)(F)F)cc1C(F)(F)F` (stereo partly drawn) [F63, 4-((Z)-3-(4-Bromo-3,5-chlorophenyl)-1,4,4,4-tetrafluorobut-1-en-1-yl)-N—((R)-1-(ethylsulfonyl)propan-2-yl)-2-(trifluoromethyl)benzamide], for which the mortality at 50 µg/cm2 in assay [1] and in assay [2] was 50 to 100% in each case.

Turning to `C[C@H](CSCC(F)(F)F)NC(=O)c1ccc(/C(F)=C/C(c2cc(Cl)cc(Br)c2)C(F)(F)F)cc1C(F)(F)F` (stereo partly drawn) [F64, 4-((Z)-3-(3-Bromo-5-chlorophenyl)-1,4,4,4-tetrafluorobut-1-en-1-yl)-N—((R)-1-((2,2,2-trifluoroethyl)thio)propan-2-yl)-2-(trifluoromethyl)benzamide], the mortality at 50 µg/cm2 in assay [1] and in assay [2] was 50 to 100% in each case.

Turning to `C[C@H](C[S+]([O-])CC(F)(F)F)NC(=O)c1ccc(/C(F)=C/C(c2ccc(Cl)c(Cl)c2)C(F)(F)F)cc1Br` (stereo partly drawn) [F66, 2-Bromo-4-((Z)-3-(3,4-dichlorophenyl)-1,4,4,4-tetrafluorobut-1-en-1-yl)-N-((2R)-1-((2,2,2-trifluoroethyl)sulfinyl)propan-2-yl)benzamide], the mortality at 50 µg/cm2 in assay [1] and in assay [2] was 50 to 100% in each case.

Regarding `C[C@H](CS(=O)(=O)CC(F)(F)F)NC(=O)c1ccc(/C(F)=C/C(c2ccc(Cl)c(Cl)c2)C(F)(F)F)cc1Br` (stereo partly shown) [F67], the mortality at 50 µg/cm2 in assay [1] and in assay [2] was 50 to 100% throughout.

For `C[C@H](CS(=O)(=O)CC(F)(F)F)NC(=O)c1ccc(/C(F)=C/C(c2cc(Cl)c(Cl)c(C(F)F)c2)C(F)(F)F)cc1C(F)(F)F` (stereo partly drawn) [F70, 4-((Z)-3-(3,4-dichloro-5-(difluoromethyl)phenyl)-1,4,4,4-tetrafluorobut-1-en-1-yl)-N—((R)-1-((2,2,2-trifluoroethyl)sulfonyl)propan-2-yl)-2-(trifluoromethyl)benzamide], the mortality at 50 µg/cm2 in assay [1] and in assay [2] was 50 to 100% each time.

With `C[C@H](CS(=O)(=O)CC(F)(F)F)NC(=O)c1ccc(/C(F)=C/C(c2cc(F)c(Cl)c(C(F)(F)F)c2)C(F)(F)F)cc1C(F)(F)F` (stereo partly drawn) [F71, 4-((Z)-3-(4-Chloro-3-fluoro-5-(trifluoromethyl)phenyl)-1,4,4,4-tetrafluorobut-1-en-1-yl)-N—((R)-1-((2,2,2-trifluoroethyl)sulfonyl)propan-2-yl)-2-(trifluoromethyl)benzamide], the mortality at 50 µg/cm2 in assay [1] and in assay [2] was 50 to 100% each time.

Turning to `C[C@H](CS(=O)(=O)CC(F)(F)F)NC(=O)c1ccc(/C(F)=C/[C@H](c2cc(Cl)c(Cl)c(Cl)c2)C(F)(F)F)cc1C(F)(F)F` [F72, 4-((R,Z)-1,4,4,4-tetrafluoro-3-(3,4,5-trichlorophenyl)but-1-en-1-yl)-N—((R)-1-((2,2,2-trifluoroethyl)sulfonyl)propan-2-yl)-2-(trifluoromethyl)benzamide], the mortality at 50 µg/cm2 in assay [1] and in assay [2] was 50 to 100% each time.

Consider `C=Cc1cc(C(/C=C(\F)c2ccc(C(=O)N[C@H](C)CS(=O)(=O)CC(F)(F)F)c(C(F)(F)F)c2)C(F)(F)F)cc(Cl)c1Cl` (stereo partly drawn) [F73, 4-((Z)-3-(3,4-dichloro-5-vinylphenyl)-1,4,4,4-tetrafluorobut-1-en-1-yl)-N—((R)-1-((2,2,2-trifluoroethyl)sulfonyl)propan-2-yl)-2-(trifluoromethyl)benzamide], for which the mortality at 50 µg/cm2 in assay [1] and in assay [2] was 50 to 100% each time.

`CSC[C@@H](C)NC(=O)c1ccc(/C(F)=C/C(c2cc(Cl)c(Cl)c(Cl)c2)C(F)(F)F)cc1C(F)(F)F` (stereo partly drawn) [F75, N—((R)-1-(Methylthio)propan-2-yl)-4-((Z)-1,4,4,4-tetrafluoro-3-(3,4,5-trichlorophenyl)but-1-en-1-yl)-2-(trifluoromethyl)benzamide]: the mortality at 50 µg/cm2 in assay [1] and in assay [2] was 50 to 100% throughout.

In the case of `C[C@H](CS(=O)(=O)CC(F)(F)F)NC(=O)c1ccc(/C(F)=C/C(c2ccc(F)c(C(F)(F)F)c2)C(F)(F)F)cc1C(F)(F)F` (stereo partly drawn) [F77, 4-((Z)-1,4,4,4-Tetrafluoro-3-(4-fluoro-3-(trifluoromethyl)phenyl)but-1-en-1-yl)-N—((R)-1-((2,2,2-trifluoroethyl)sulfonyl)propan-2-yl)-2-(trifluoromethyl)benzamide], the mortality at 50 µg/cm2 in assay [1] and in assay [2] was 50 to 100% in each case.

Turning to `C[C@H](CS(=O)(=O)CC(F)(F)F)NC(=O)c1ccc(/C(F)=C/C(c2ccc(Cl)c(Br)c2)C(F)(F)F)cc1C(F)(F)F` (stereo partly drawn) [F79, 4-((Z)-3-(3-Bromo-4-chlorophenyl)-1,4,4,4-tetrafluorobut-1-en-1-yl)-N—((R)-1-((2,2,2-trifluoroethyl)sulfonyl)propan-2-yl)-2-(trifluoromethyl)benzamide], the mortality at 50 µg/cm2 in assay [1] and in assay [2] was 50 to 100% in each case.

As to `C[C@H](CS(=O)(=O)CC(F)(F)F)NC(=O)c1ccc(/C(F)=C/C(c2cc(Cl)c(Cl)c(Br)c2)C(F)(F)F)cc1C(F)(F)F` (stereo partly drawn) [F80, 4-((Z)-3-(3-Bromo-4,5-dichlorophenyl)-1,4,4,4-tetrafluorobut-1-en-1-yl)-N—((R)-1-((2,2,2-trifluoroethyl)sulfonyl)propan-2-yl)-2-(trifluoromethyl)benzamide], the mortality at 50 µg/cm2 in assay [1] and in assay [2] was 50 to 100% throughout.

As to `C[C@H](CS(=O)(=O)CC(F)(F)F)NC(=O)c1ccc(/C(F)=C/C(c2cc(Cl)cc(C(F)(F)F)c2)C(F)(F)F)cc1C(F)(F)F` (stereo partly drawn) [F81, 4-((Z)-3-(3-Chloro-5-(trifluoromethyl)phenyl)-1,4,4,4-tetrafluorobut-1-en-1-yl)-N—((R)-1-((2,2,2-trifluoroethyl)sulfonyl)propan-2-yl)-2-(trifluoromethyl)benzamide], the mortality at 50 µg/cm2 in assay [1] and in assay [2] was 50 to 100% throughout.

As for `C[C@H](CSCC(F)F)NC(=O)c1ccc(/C(F)=C/C(c2cc(Cl)c(Cl)c(Cl)c2)C(F)(F)F)cc1C(F)(F)F` (stereo partly drawn) [F82, N—((R)-1-((2,2-Difluoroethyl)thio)propan-2-yl)-4-((Z)-1,4,4,4-tetrafluoro-3-(3,4,5-trichlorophenyl)but-1-en-1-yl)-2-(trifluoromethyl)benzamide], the mortality at 50 µg/cm2 in assay [1] and in assay [2] was 50 to 100% in each case.

Consider `C[C@H](CSCC#N)NC(=O)c1ccc(/C(F)=C/C(c2cc(Cl)c(Cl)c(Cl)c2)C(F)(F)F)cc1C(F)(F)F` (stereo partly drawn) [F83, N—((R)-1-((Cyanomethyl)thio)propan-2-yl)-4-((Z)-1,4,4,4-tetrafluoro-3-(3,4,5-trichlorophenyl)but-1-en-1-yl)-2-(trifluoromethyl)benzamide], for which the mortality at 50 µg/cm2 in assay [1] and in assay [2] was 50 to 100% in each case.

`C[C@H](CSCCF)NC(=O)c1ccc(/C(F)=C/C(c2cc(Cl)c(Cl)c(Cl)c2)C(F)(F)F)cc1C(F)(F)F` (stereo partly drawn) [F84, N—((R)-1-((2-Fluoroethyl)thio)propan-2-yl)-4-((Z)-1,4,4,4-tetrafluoro-3-(3,4,5-trichlorophenyl)but-1-en-1-yl)-2-(trifluoromethyl)benzamide]: the mortality at 50 µg/cm2 in assay [1] and in assay [2] was 50 to 100% in each case.

On to `C[C@H](CS(=O)(=O)CCF)NC(=O)c1ccc(/C(F)=C/C(c2cc(Cl)c(Cl)c(Cl)c2)C(F)(F)F)cc1C(F)(F)F` (stereo partly drawn) [F85, N—((R)-1-((2-Fluoroethyl)sulfonyl)propan-2-yl)-4-((Z)-1,4,4,4-tetrafluoro-3-(3,4,5-trichlorophenyl)but-1-en-1-yl)-2-(trifluoromethyl)benzamide], for which the mortality at 50 µg/cm2 in assay [1] and in assay [2] was 50 to 100% each time.

As for `C[C@H](C[S+]([O-])CC(F)F)NC(=O)c1ccc(/C(F)=C/C(c2cc(Cl)c(Cl)c(Cl)c2)C(F)(F)F)cc1C(F)(F)F` (stereo partly drawn) [F86, N-((2R)-1-((2,2-Difluoroethyl)sulfinyl)propan-2-yl)-4-((Z)-1,4,4,4-tetrafluoro-3-(3,4,5-trichlorophenyl)but-1-en-1-yl)-2-(trifluoromethyl)benzamide], the mortality at 50 µg/cm2 in assay [1] and in assay [2] was 50 to 100% in each case.

The term mortality denotes the share of the test organisms that died.
